US9907790B2, “Solid forms of an ASK1 inhibitor” (Gilead Sciences, Inc., priority 2014, dated 2018)
Converted amounts (≈) assume the structure as drawn.

Experiments:
Format in all cases: physicochemical
[1] = High humidity stress test at 75% RH/RT
[2] = Form change on heating, drying or exposure to ambient conditions; details: for form change at ambient conditions: ambient temperature and humidity / storage at ambient conditions; for form change upon drying: drying (air-drying at RT)
Excerpt: Form V has only been truly isolated by growth of single crystals.
Isolated solids were dried with filter paper to remove residual solvents and analyzed by DSC, TGA and KF. […] (FIG. 45).
The sample was stirred for more than two months before being placed into storage without agitation and at ambient conditions. […] The material was collected by vacuum filtration and dried under ambient conditions. […] (FIG. 48).

[3] = Stable form screen of Compound I (suspension in solvents at RT, solids analysed by XRPD); details: starting from Compound I Form I
Protocol: Compound I Form I was suspended with stirring in capped glass vials at RT. Samples from the suspensions were centrifuged/filtered and the isolated solids and liquids were analyzed. Solids were analyzed by XRPD and liquids were analyzed for solubility by […]. Sampling and analysis were performed after one day and greater than fourteen days.

[4] = Solubility of Compound I in EtOH; details: ethanol, organic solvent or mixture
Protocol: The crystallization was then continued in line with Method 1 outlined above. After filtration, the Form I solids are dried in a vacuum oven at about 45-50° C.

5-(4-cyclopropyl-1H-imidazol-1-yl)-N-(6-(4-isopropyl-4H-1,2,4-triazol-3-yl)pyridin-2-yl)-2-fluoro-4-methylbenzamide propyl gallate [Compound I Propyl Gallate Form I]
deliquescence in high humidity stress test [1]: did not show any evidence of deliquescence

Cc1cc(F)c(C(=O)Nc2cccc(-c3nncn3C(C)C)n2)cc1-n1cnc(C2CC2)c1.O=S(=O)(O)O [Compound I Sulfate Form I, 5-(4-cyclopropyl-1H-imidazol-1-yl)-N-(6-(4-isopropyl-4H-1,2,4-triazol-3-yl)pyridin-2-yl)-2-fluoro-4-methylbenzamide sulfate]
deliquescence in high humidity stress test [1]: did not show any evidence of deliquescence

Cc1cc(F)c(C(=O)Nc2cccc(-c3nncn3C(C)C)n2)cc1-n1cnc(C2CC2)c1 [Compound I Form VIII, 5-(4-cyclopropyl-1H-imidazol-1-yl)-N-(6-(4-isopropyl-4H-1,2,4-triazol-3-yl)pyridin-2-yl)-2-fluoro-4-methylbenzamide]
form change at ambient conditions [2]: rapidly loses water and converts to Compound I Form VI

Cc1cc(F)c(C(=O)Nc2cccc(-c3nncn3C(C)C)n2)cc1-n1cnc(C2CC2)c1.Cc1ccc(S(=O)(=O)O)cc1 [Compound I Tosylate Form I, 5-(4-cyclopropyl-1H-imidazol-1-yl)-N-(6-(4-isopropyl-4H-1,2,4-triazol-3-yl)pyridin-2-yl)-2-fluoro-4-methylbenzamide tosylate]
deliquescence in high humidity stress test [1]: did not show any evidence of deliquescence

Cc1cc(F)c(C(=O)Nc2cccc(-c3nncn3C(C)C)n2)cc1-n1cnc(C2CC2)c1 [Compound I, 5-(4-cyclopropyl-1H-imidazol-1-yl)-N-(6-(4-isopropyl-4H-1,2,4-triazol-3-yl)pyridin-2-yl)-2-fluoro-4-methylbenzamide]
14+ Day XRPD ([3]; suspended in 2-propanol at RT): Form I
24 Hour XRPD ([3]; suspended in 2-propanol at RT): Form I
14+ Day XRPD ([3]; suspended in ACN at RT): Form I
24 Hour XRPD ([3]; suspended in ACN at RT): Form I
24 Hour XRPD ([3]; suspended in DCM at RT): V, II
14+ Day XRPD ([3]; suspended in EtOAc at RT): Form I
24 Hour XRPD ([3]; suspended in EtOAc at RT): Form I
14+ Day XRPD ([3]; suspended in Ethanol at RT): Form I
24 Hour XRPD ([3]; suspended in Ethanol at RT): Form I
14+ Day XRPD ([3]; suspended in IPAC at RT): Form I
24 Hour XRPD ([3]; suspended in IPAC at RT): Form I
14+ Day XRPD ([3]; suspended in MTBE at RT): Form I
24 Hour XRPD ([3]; suspended in MTBE at RT): Form I
14+ Day XRPD ([3]; suspended in THF at RT): Form I
24 Hour XRPD ([3]; suspended in THF at RT): Form I
14+ Day XRPD ([3]; suspended in acetone at RT): Form I
24 Hour XRPD ([3]; suspended in acetone at RT): Form I
14+ Day XRPD ([3]; suspended in methanol at RT): Form I
24 Hour XRPD ([3]; suspended in methanol at RT): Form I
14+ Day XRPD ([3]; suspended in n-heptane at RT): Form I
24 Hour XRPD ([3]; suspended in n-heptane at RT): Form I
14+ Day XRPD ([3]; suspended in water at RT): Form I
24 Hour XRPD ([3]; suspended in water at RT): Form I
solubility [4]: ~20 mg/mL (≈ 44.9 mM)

Cc1cc(F)c(C(=O)Nc2cccc(-c3nncn3C(C)C)n2)cc1-n1cnc(C2CC2)c1.Cl [Compound I HCl Form I, 5-(4-cyclopropyl-1H-imidazol-1-yl)-N-(6-(4-isopropyl-4H-1,2,4-triazol-3-yl)pyridin-2-yl)-2-fluoro-4-methylbenzamide hydrochloride]
deliquescence in high humidity stress test [1]: did not show any evidence of deliquescence

Cc1cc(F)c(C(=O)Nc2cccc(-c3nncn3C(C)C)n2)cc1-n1cnc(C2CC2)c1 [Compound I Form V, 5-(4-cyclopropyl-1H-imidazol-1-yl)-N-(6-(4-isopropyl-4H-1,2,4-triazol-3-yl)pyridin-2-yl)-2-fluoro-4-methylbenzamide]
form change upon drying [2]: readily desolvates to Compound I Form II
form change upon drying ([2]; listed as Form V): converting to Form II

Cc1cc(F)c(C(=O)Nc2cccc(-c3nncn3C(C)C)n2)cc1-n1cnc(C2CC2)c1.O=C(O)C(=O)O [Compound I Oxalate Form I, 5-(4-cyclopropyl-1H-imidazol-1-yl)-N-(6-(4-isopropyl-4H-1,2,4-triazol-3-yl)pyridin-2-yl)-2-fluoro-4-methylbenzamide oxalate]
deliquescence in high humidity stress test [1]: did not show any evidence of deliquescence

Cc1cc(F)c(C(=O)Nc2cccc(-c3nncn3C(C)C)n2)cc1-n1cnc(C2CC2)c1.O=C(O)/C=C/C(=O)O [Compound I Fumarate Form I, 5-(4-cyclopropyl-1H-imidazol-1-yl)-N-(6-(4-isopropyl-4H-1,2,4-triazol-3-yl)pyridin-2-yl)-2-fluoro-4-methylbenzamide fumarate]
deliquescence in high humidity stress test [1]: did not show any evidence of deliquescence

Cc1cc(F)c(C(=O)Nc2cccc(-c3nncn3C(C)C)n2)cc1-n1cnc(C2CC2)c1.O=C(O)CCC(=O)O [Compound I Succinate Form I, 5-(4-cyclopropyl-1H-imidazol-1-yl)-N-(6-(4-isopropyl-4H-1,2,4-triazol-3-yl)pyridin-2-yl)-2-fluoro-4-methylbenzamide succinate]
deliquescence in high humidity stress test [1]: did not show any evidence of deliquescence

Cc1cc(F)c(C(=O)Nc2cccc(-c3nncn3C(C)C)n2)cc1-n1cnc(C2CC2)c1.O=C(O)/C=C\C(=O)O [Compound I Maleate Form I, 5-(4-cyclopropyl-1H-imidazol-1-yl)-N-(6-(4-isopropyl-4H-1,2,4-triazol-3-yl)pyridin-2-yl)-2-fluoro-4-methylbenzamide maleate]
deliquescence in high humidity stress test [1]: did not show any evidence of deliquescence

Cc1cc(F)c(C(=O)Nc2cccc(-c3nncn3C(C)C)n2)cc1-n1cnc(C2CC2)c1.O=C(O)CO [Compound I Glycolate Form I, 5-(4-cyclopropyl-1H-imidazol-1-yl)-N-(6-(4-isopropyl-4H-1,2,4-triazol-3-yl)pyridin-2-yl)-2-fluoro-4-methylbenzamide glycolate]
deliquescence in high humidity stress test [1]: did not show any evidence of deliquescence

CS(=O)(=O)O.Cc1cc(F)c(C(=O)Nc2cccc(-c3nncn3C(C)C)n2)cc1-n1cnc(C2CC2)c1 [Compound I Mesylate Form I, 5-(4-cyclopropyl-1H-imidazol-1-yl)-N-(6-(4-isopropyl-4H-1,2,4-triazol-3-yl)pyridin-2-yl)-2-fluoro-4-methylbenzamide mesylate]
deliquescence in high humidity stress test [1]: did not show any evidence of deliquescence

Cc1cc(F)c(C(=O)Nc2cccc(-c3nncn3C(C)C)n2)cc1-n1cnc(C2CC2)c1 [Compound I Form IX, 5-(4-cyclopropyl-1H-imidazol-1-yl)-N-(6-(4-isopropyl-4H-1,2,4-triazol-3-yl)pyridin-2-yl)-2-fluoro-4-methylbenzamide]
form change at ambient conditions [2]: converts to Form I

Cc1cc(F)c(C(=O)Nc2cccc(-c3nncn3C(C)C)n2)cc1-n1cnc(C2CC2)c1.O=C(O)C(O)C(O)C(=O)O [Compound I L-Tartrate Form I, 5-(4-cyclopropyl-1H-imidazol-1-yl)-N-(6-(4-isopropyl-4H-1,2,4-triazol-3-yl)pyridin-2-yl)-2-fluoro-4-methylbenzamide L-tartrate]
deliquescence in high humidity stress test [1]: did not show any evidence of deliquescence

Cc1cc(F)c(C(=O)Nc2cccc(-c3nncn3C(C)C)n2)cc1-n1cnc(C2CC2)c1 [Compound I Form II, 5-(4-cyclopropyl-1H-imidazol-1-yl)-N-(6-(4-isopropyl-4H-1,2,4-triazol-3-yl)pyridin-2-yl)-2-fluoro-4-methylbenzamide]
form change after heating ([2]; heating to about 110° C.): No form change
form change after heating ([2]; heating up to about 180° C.): re-crystallizes to Compound I Form VI

5-(4-cyclopropyl-1H-imidazol-1-yl)-N-(6-(4-isopropyl-4H-1,2,4-triazol-3-yl)pyridin-2-yl)-2-fluoro-4-methylbenzamide edisylate [Compound I Edisylate Form I]
deliquescence in high humidity stress test [1]: did not show any evidence of deliquescence

5-(4-cyclopropyl-1H-imidazol-1-yl)-N-(6-(4-isopropyl-4H-1,2,4-triazol-3-yl)pyridin-2-yl)-2-fluoro-4-methylbenzamide glutarate [Compound I Glutarate Form I]
deliquescence in high humidity stress test [1]: did not show any evidence of deliquescence

5-(4-cyclopropyl-1H-imidazol-1-yl)-N-(6-(4-isopropyl-4H-1,2,4-triazol-3-yl)pyridin-2-yl)-2-fluoro-4-methylbenzamide gentisate [Compound I Gentisate Form II]
deliquescence in high humidity stress test [1]: did not show any evidence of deliquescence

Cc1cc(F)c(C(=O)Nc2cccc(-c3nncn3C(C)C)n2)cc1-n1cnc(C2CC2)c1 [Compound I Form I, 5-(4-cyclopropyl-1H-imidazol-1-yl)-N-(6-(4-isopropyl-4H-1,2,4-triazol-3-yl)pyridin-2-yl)-2-fluoro-4-methylbenzamide]
14+ Day XRPD ([3]; suspended in DCM at RT): mixture of Compound I Form II and Compound I Form V
24 Hour XRPD ([3]; suspended in DCM at RT): mixture of Forms II and V

CCS(=O)(=O)O.Cc1cc(F)c(C(=O)Nc2cccc(-c3nncn3C(C)C)n2)cc1-n1cnc(C2CC2)c1 [Compound I Esylate Form I, 5-(4-cyclopropyl-1H-imidazol-1-yl)-N-(6-(4-isopropyl-4H-1,2,4-triazol-3-yl)pyridin-2-yl)-2-fluoro-4-methylbenzamide esylate]
deliquescence in high humidity stress test [1]: did not show any evidence of deliquescence
